System: serum uric acid (sUA) levels in hyperuricemic patients
Assay: PRESTO study: change in serum uric acid in hyperuricemic patients (baseline >=8 mg/dL), Tranilast twice daily for 1 or 3 months
Format: in vivo, human
Description: The PRESTO (Prevention of Restenosis with Tranilast and its Outcomes) study was a multicenter study of ˜11,500 patients undergoing percutaneous transluminal coronary revascularization (PTCR) with or without stenting for single or multiple vessels over a 9-month period. The study compared the composite clinical event rate of death, myocardial infarction, or need for ischemia-driven target vessel revascularization in patients treated with Tranilast (300 and 450 mg twice daily) for 1 or 3 months versus placebo. Description of the study protocol and patient population can be found in Holmes et al., The PRESTO (Prevention of Restenosis with Tranilast and its Outcomes) protocol: A double-blind, placebo-controlled trial, Am Heart J 2000; 139:23-31; and Holmes et al., Results of Prevention of REStenosis with Tranilast and its Outcomes (PRESTO) Trial, Circulation. 2002; 106:1243, both of which are incorporated by reference herein in their entirety.
Gout was a contraindication for patient enrollment in the PRESTO trial. Nevertheless, 1100 patients enrolled in the trial were identified with baseline hyperuricemia defined as initial serum uric acid (sUA) levels greater than or equal to 7 mg/dL. Of these, approximately 300 participants had baseline serum uric acid levels greater than or equal to 8 mg/dL. […] As indicated in FIG. 1 and Table 4, some patients were treated with placebo, some patients were treated with Tranilast for 4 weeks followed by placebo, and some patients were treated with Tranilast for 12 weeks.

COc1ccc(/C=C/C(=O)Nc2ccccc2C(=O)O)cc1OC [Tranilast, 2-[[3-(3,4-dimethoxyphenyl)-1-oxo-2-propenyl]amino]benzoic acid]
Change from Baseline in Uric Acid, Max (3M TRAN 300 mg, Follow-Up): 3.04 mg/dL
Change from Baseline in Uric Acid, Mean (SD) (3M TRAN 300 mg, Follow-Up): −0.00 (1.519) mg/dL
Change from Baseline in Uric Acid, Median (3M TRAN 300 mg, Follow-Up): -0.13 mg/dL
Change from Baseline in Uric Acid, Min (3M TRAN 300 mg, Follow-Up): -3.00 mg/dL
Change from Baseline in Uric Acid, Max (3M TRAN 300 mg, Post-PTCR): 1.90 mg/dL
Change from Baseline in Uric Acid, Mean (SD) (3M TRAN 300 mg, Post-PTCR): −1.81 (1.966) mg/dL
Change from Baseline in Uric Acid, Median (3M TRAN 300 mg, Post-PTCR): -1.58 mg/dL
Change from Baseline in Uric Acid, Min (3M TRAN 300 mg, Post-PTCR): -14.79 mg/dL
Change from Baseline in Uric Acid, Max (3M TRAN 300 mg, Week 1): 3.14 mg/dL
Change from Baseline in Uric Acid, Mean (SD) (3M TRAN 300 mg, Week 1): −2.96 (2.394) mg/dL
Change from Baseline in Uric Acid, Median (3M TRAN 300 mg, Week 1): -2.85 mg/dL
Change from Baseline in Uric Acid, Min (3M TRAN 300 mg, Week 1): -15.66 mg/dL
Change from Baseline in Uric Acid, Max (3M TRAN 300 mg, Week 2): 2.30 mg/dL
Change from Baseline in Uric Acid, Mean (SD) (3M TRAN 300 mg, Week 2): −2.98 (2.224) mg/dL
Change from Baseline in Uric Acid, Median (3M TRAN 300 mg, Week 2): -2.94 mg/dL
Change from Baseline in Uric Acid, Min (3M TRAN 300 mg, Week 2): -15.09 mg/dL
Change from Baseline in Uric Acid, Max (3M TRAN 300 mg, Week 3): 1.92 mg/dL
Change from Baseline in Uric Acid, Mean (SD) (3M TRAN 300 mg, Week 3): −2.92 (1.946) mg/dL
Change from Baseline in Uric Acid, Median (3M TRAN 300 mg, Week 3): -3.00 mg/dL
Change from Baseline in Uric Acid, Min (3M TRAN 300 mg, Week 3): -6.13 mg/dL
Change from Baseline in Uric Acid, Max (3M TRAN 300 mg, Week 4): 1.98 mg/dL
Change from Baseline in Uric Acid, Mean (SD) (3M TRAN 300 mg, Week 4): −2.83 (2.212) mg/dL
Change from Baseline in Uric Acid, Median (3M TRAN 300 mg, Week 4): -2.80 mg/dL
Change from Baseline in Uric Acid, Min (3M TRAN 300 mg, Week 4): -14.30 mg/dL
Change from Baseline in Uric Acid, Max (3M TRAN 300 mg, Week 6): 8.50 mg/dL
Change from Baseline in Uric Acid, Mean (SD) (3M TRAN 300 mg, Week 6): −2.75 (2.755) mg/dL
Change from Baseline in Uric Acid, Median (3M TRAN 300 mg, Week 6): -3.00 mg/dL
Change from Baseline in Uric Acid, Min (3M TRAN 300 mg, Week 6): -15.65 mg/dL
Change from Baseline in Uric Acid, Max (3M TRAN 300 mg, Week 8): 1.70 mg/dL
Change from Baseline in Uric Acid, Mean (SD) (3M TRAN 300 mg, Week 8): −2.76 (2.451) mg/dL
Change from Baseline in Uric Acid, Median (3M TRAN 300 mg, Week 8): -2.71 mg/dL
Change from Baseline in Uric Acid, Min (3M TRAN 300 mg, Week 8): -15.77 mg/dL
Change from Baseline in Uric Acid, Max (3M TRAN 300 mg, Week 10): 2.30 mg/dL
Change from Baseline in Uric Acid, Mean (SD) (3M TRAN 300 mg, Week 10): −2.97 (2.490) mg/dL
Change from Baseline in Uric Acid, Median (3M TRAN 300 mg, Week 10): -2.98 mg/dL
Change from Baseline in Uric Acid, Min (3M TRAN 300 mg, Week 10): -15.65 mg/dL
Change from Baseline in Uric Acid, Max (3M TRAN 300 mg, Week 12): 3.60 mg/dL
Change from Baseline in Uric Acid, Mean (SD) (3M TRAN 300 mg, Week 12): −2.74 (2.634) mg/dL
Change from Baseline in Uric Acid, Median (3M TRAN 300 mg, Week 12): -2.69 mg/dL
Change from Baseline in Uric Acid, Min (3M TRAN 300 mg, Week 12): -16.02 mg/dL
Change from Baseline in Uric Acid, Max (3M TRAN 450 mg, Follow-Up): 1.80 mg/dL
Change from Baseline in Uric Acid, Mean (SD) (3M TRAN 450 mg, Follow-Up): −0.67 (1.277) mg/dL
Change from Baseline in Uric Acid, Median (3M TRAN 450 mg, Follow-Up): -0.70 mg/dL
Change from Baseline in Uric Acid, Min (3M TRAN 450 mg, Follow-Up): -2.90 mg/dL
Change from Baseline in Uric Acid, Max (3M TRAN 450 mg, Post-PTCR): 1.70 mg/dL
Change from Baseline in Uric Acid, Mean (SD) (3M TRAN 450 mg, Post-PTCR): −2.16 (1.577) mg/dL
Change from Baseline in Uric Acid, Median (3M TRAN 450 mg, Post-PTCR): -1.90 mg/dL
Change from Baseline in Uric Acid, Min (3M TRAN 450 mg, Post-PTCR): -7.34 mg/dL
Change from Baseline in Uric Acid, Max (3M TRAN 450 mg, Week 1): 0.90 mg/dL
Change from Baseline in Uric Acid, Mean (SD) (3M TRAN 450 mg, Week 1): −3.84 (1.839) mg/dL
Change from Baseline in Uric Acid, Median (3M TRAN 450 mg, Week 1): -3.99 mg/dL
Change from Baseline in Uric Acid, Min (3M TRAN 450 mg, Week 1): -8.79 mg/dL
Change from Baseline in Uric Acid, Max (3M TRAN 450 mg, Week 2): 0.92 mg/dL
Change from Baseline in Uric Acid, Mean (SD) (3M TRAN 450 mg, Week 2): −4.05 (1.861) mg/dL
Change from Baseline in Uric Acid, Median (3M TRAN 450 mg, Week 2): -4.56 mg/dL
Change from Baseline in Uric Acid, Min (3M TRAN 450 mg, Week 2): -8.72 mg/dL
Change from Baseline in Uric Acid, Max (3M TRAN 450 mg, Week 3): 1.50 mg/dL
Change from Baseline in Uric Acid, Mean (SD) (3M TRAN 450 mg, Week 3): −2.84 (2.227) mg/dL
Change from Baseline in Uric Acid, Median (3M TRAN 450 mg, Week 3): -3.79 mg/dL
Change from Baseline in Uric Acid, Min (3M TRAN 450 mg, Week 3): -5.79 mg/dL
Change from Baseline in Uric Acid, Max (3M TRAN 450 mg, Week 4): 1.43 mg/dL
Change from Baseline in Uric Acid, Mean (SD) (3M TRAN 450 mg, Week 4): −3.70 (2.190) mg/dL
Change from Baseline in Uric Acid, Median (3M TRAN 450 mg, Week 4): -3.90 mg/dL
Change from Baseline in Uric Acid, Min (3M TRAN 450 mg, Week 4): -8.40 mg/dL
Change from Baseline in Uric Acid, Max (3M TRAN 450 mg, Week 6): 2.70 mg/dL
Change from Baseline in Uric Acid, Mean (SD) (3M TRAN 450 mg, Week 6): −3.89 (2.265) mg/dL
Change from Baseline in Uric Acid, Median (3M TRAN 450 mg, Week 6): -4.39 mg/dL
Change from Baseline in Uric Acid, Min (3M TRAN 450 mg, Week 6): -8.69 mg/dL
Change from Baseline in Uric Acid, Max (3M TRAN 450 mg, Week 8): 1.40 mg/dL
Change from Baseline in Uric Acid, Mean (SD) (3M TRAN 450 mg, Week 8): −3.65 (2.104) mg/dL
Change from Baseline in Uric Acid, Median (3M TRAN 450 mg, Week 8): -3.83 mg/dL
Change from Baseline in Uric Acid, Min (3M TRAN 450 mg, Week 8): -7.16 mg/dL
Change from Baseline in Uric Acid, Max (3M TRAN 450 mg, Week 10): 1.50 mg/dL
Change from Baseline in Uric Acid, Mean (SD) (3M TRAN 450 mg, Week 10): −3.73 (2.306) mg/dL
Change from Baseline in Uric Acid, Median (3M TRAN 450 mg, Week 10): -4.10 mg/dL
Change from Baseline in Uric Acid, Min (3M TRAN 450 mg, Week 10): -8.60 mg/dL
Change from Baseline in Uric Acid, Max (3M TRAN 450 mg, Week 12): 0.50 mg/dL
Change from Baseline in Uric Acid, Mean (SD) (3M TRAN 450 mg, Week 12): −3.79 (2.065) mg/dL
Change from Baseline in Uric Acid, Median (3M TRAN 450 mg, Week 12): -4.30 mg/dL
Change from Baseline in Uric Acid, Min (3M TRAN 450 mg, Week 12): -8.12 mg/dL
serum uric acid levels in patients treated with Tranilast (analysis of PRESTO data, 300 and 450 mg twice daily): markedly decreased
